Experimental data from patent US20020193377A1, “Quinazolines as MMP-13 inhibitors” (priority 2001, published 2002).

Molecular target: T1, human collagenase-3 catalytic domain enzyme (MMP13) (Homo sapiens, UniProt P45452)
T1 construct: human collagenase-3 catalytic domain enzyme
Test: MMP13CD Thiopeptolide Assay
Type: biochemical
Protocol: MMP13CD Thiopeptolide Assay: Proteolysis of the thiopeptolide substrate Ac-Pro-Leu-Gly-thioester-Leu-Leu-Gly-OEt is used as the primary screen to determine IC50 values for MMP13 inhibitors. A 100 μl reaction contains 50 mM HEPES, 10 mM CaCl2, pH 7.0 (RT), 1 mM 5,5′-dithiobis(2-nitrobenzoic acid) (DTNB), 100 μM substrate, inhibitor in 2.0% DMSO and 2.5 nM human collagenase-3 catalytic domain enzyme. Inhibitors are screened from 100 μM to 0.5 nM. […] Percentage of control velocity in inhibited treatments is plotted against inhibitor concentration to calculate IC50 values.

SMILES | IC50 [nM]
COC(=O)c1ccc(Cn2c(=O)c3cc(C(=O)NCc4ccc(OC)cc4)ccc3n(C)c2=O)cc1 [Example 34, Methyl 4-[6-(4-methoxy-benzylcarbamoyl)-1-methyl-2,4-dioxo-1,4-dihydro-2H-quinazolin-3-ylmethyl]-benzoate] | 26
Cn1c(=O)n(C/C=C/c2ccccc2)c(=O)c2cc(C(=O)NCc3ccc4c(c3)OCO4)ccc21 [Example 36, 1-Methyl-2,4-dioxo-3-((E)-3phenylally)-1,2,3,4-tetrahydroquinazoline-6-carboxylic acid (benzo[1,3]dioxol-5-ylmethyl)amide] | 600
O=C(OCc1ccccc1)c1ccc2[nH]c(=O)n(Cc3ccccc3)c(=O)c2c1 [Example 37, Benzyl 3-benzyl-2,4-dioxo-1,2,3,4-tetrahydroquinazolne-6-carboxylate] | 750
O=C(OCc1ccncc1)c1ccc2[nH]c(=O)n(Cc3ccccc3)c(=O)c2c1 [Example 39, 4-Pyridylmethyl 3-benzyl-2,4-dioxo-1,2,3,4-tetrahydroqinazoline-6-carboxylate] | 1
Cn1c(=O)n(Cc2ccccc2)c(=O)c2cc(C(=O)OCc3ccncc3)ccc21 [Example 40, 4-Pyridylmethyl 3-benzyl-1-methyl-2,4-dioxo-1,3,3,4-tetrahydroquinazoline-6-carboxylate] | 28
O=C(OCc1ccc2c(c1)OCO2)c1ccc2[nH]c(=O)n(Cc3ccccc3)c(=O)c2c1 [Example 41, Benzo[1,3]dioxol-5-ylmethyl3-benzyl-2,4-dioxo-1,2,3,4-tetrahydroquinazoline-6-carboxylate] | 29
Cn1c(=O)n(Cc2ccccc2)c(=O)c2cc(C(=O)OCc3ccc4c(c3)OCO4)ccc21 [Example 42, Benzo[1,3]dioxol-5-ylmethyl3-benzyl-1-methyl-2,4-dioxo-1,2,3,4-tetrahydroquinazoline-6-carboxylate] | 31
O=C(OCc1ccccc1)c1ccc2c(c1)c(=O)n(Cc1ccncc1)c(=O)n2Cc1ccccc1 [Example 43, Benzyl 1-benzyl-2,4-dioxo-3-pyrid-4-ylmethyl-1,2,3,4-tetrahydroquinazoline-6carboxylate] | 11
O=C(OCc1ccncc1)c1ccc2[nH]c(=O)n(Cc3cccs3)c(=O)c2c1 [Example 44, 4-Pyridylmethyl 2,4-dioxo-3-(thien-2-ylmethyl)-1,2,3,4-tetrahydroquinazoline-6-carboxylate] | 4
O=C(OCc1ccncc1)c1ccc2[nH]c(=O)n(Cc3ccc4c(c3)OCO4)c(=O)c2c1 [Example 45, 4-Pyridylmethyl3-(benzo[1,3]dioxol-5-ylmethyl)-2,4-dioxo-1,2,3,4-tetrahydroquinazoline6-carboxylate] | 7
O=C(OCc1ccccc1)c1cnc2[nH]c(=O)n(Cc3ccccc3)c(=O)c2c1 [Example 46, Benzyl 3-benzyl-2,4-dioxo-1,2,3,4-tetrahydroprido[2,3-d]pyrimidine-6-carboxylate] | 2.5
O=C(OCc1ccncc1)c1cnc2[nH]c(=O)n(Cc3ccccc3)c(=O)c2c1 [Example 47, 4-Pyridylmethyl 3-benzyl-2,4-dioxo-1,2,3,4-tetrahydropyrido[2,3-α]pyrimidine-6-carboxylate] | 1210
O=C(NCc1ccc2c(c1)OCO2)c1ccc2[nH]c(=S)n(Cc3ccccc3)c(=O)c2c1 [Example 48, 3-Benzyl-4-oxo-2-thioxo-1,2,3,4-tetrahydroquinazoline-6-carboxylic acid (benzo[1,3]dioxol-5-ylmethyl)amide] | 16
Cn1c(=O)n(Cc2ccc(C(=O)O)cc2)c(=O)c2cc(C(=O)NCc3ccc(O)cc3)ccc21 [Example 49, 4-[6-(4-Hydroxy-benzylcarbamoyl)-1-methyl-2,4-dioxo-1,4-dihydro-2H-quinazolin-3-ylmethyl]-benzoic acid] | 7
COc1ccc(CNC(=O)c2ccc3c(c2)c(=O)n(Cc2ccc(C(=O)N(C)C)cc2)c(=O)n3C)cc1 [Example 50, 3-(4-Dimethylcarbamoyl-benzyl)-1-methyl-2,4-dioxo-1,2,3,4-tetrahydro quinazoline-6-carboxylic acid 4-methoxy-benzylamide] | 96
